From PubChem BioAssay (NCI)
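Here, GI50 denotes the concentration required for 50% inhibition of growth. TGI: concentration producing complete growth inhibition.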

Legend:
Assay in all cases: inhibition of tumour cell growth, NCI panel, 384-well format
[1] = tested on: CCRF-CEM leukemia
[2] = tested on: SF-295 CNS
[3] = tested on: RPMI-8226 leukemia
[4] = tested on: HCT-15 colon
[5] = tested on: 786-0 renal
[6] = tested on: UO-31 renal
[7] = tested on: SK-MEL-28 melanoma
[8] = tested on: RXF 393 renal
[9] = tested on: IGROV1 ovarian
[10] = tested on: LOX IMVI melanoma
[11] = tested on: OVCAR-4 ovarian
[12] = tested on: A498 renal
[13] = tested on: DU-145 prostate
[14] = tested on: K-562 leukemia
[15] = tested on: PC-3 prostate
[16] = tested on: OVCAR-3 ovarian
[17] = tested on: M14 melanoma
[18] = tested on: HCT-116 colon
[19] = tested on: MDA-MB-435 melanoma
[20] = tested on: SF-539 CNS
[21] = tested on: HT29 colon
[22] = tested on: SNB-75 CNS
[23] = tested on: NCI-H522 lung
[24] = tested on: SF-268 CNS
[25] = tested on: UACC-257 melanoma
[26] = tested on: MALME-3M melanoma
[27] = tested on: UACC-62 melanoma
[28] = tested on: SN12C renal
[29] = tested on: SW-620 colon
[30] = tested on: TK-10 renal
[31] = tested on: SK-MEL-2 melanoma
[32] = tested on: MDA-MB-468 breast
[33] = tested on: KM12 colon
[34] = tested on: U251 glioblastoma
[35] = tested on: HOP-62 NSCLC
[36] = tested on: A549 NSCLC
[37] = tested on: T-47D breast
[38] = tested on: ACHN renal
[39] = tested on: CAKI-1 renal
[40] = tested on: OVCAR-5 ovarian
[41] = tested on: NCI-H226 lung
[42] = tested on: EKVX NSCLC
[43] = tested on: OVCAR-8 ovarian
[44] = tested on: HOP-92 NSCLC
[45] = tested on: MDA-MB-231 breast
[46] = tested on: NCI/ADR-RES ovarian
[47] = tested on: BT-549 breast
[48] = tested on: COLO 205 colon
[49] = tested on: SNB-19 CNS
[50] = tested on: HL-60(TB) leukemia
[51] = tested on: SK-OV-3 ovarian
[52] = tested on: NCI-H460 NSCLC
[53] = tested on: NCI-H322M lung
[54] = tested on: NCI-H23 lung
[55] = tested on: MOLT-4 leukemia
[56] = tested on: MCF7 breast
[57] = tested on: SR leukemia
[58] = tested on: HCC-2998 colon
[59] = tested on: SK-MEL-5 melanoma

Q: Which results are given for `CO[C@H]1/C=C/C[C@H](C)[C@@H](C)S(=O)(=O)NC(=O)c2ccc3c(c2)N(C[C@@H]2CC[C@H]21)C[C@@]1(CCCc2cc(Cl)ccc21)CO3`?
A: GI50 [1]: 0.468 µM; TGI [1]: 1.11 µM; GI50 [2]: 1.8 µM; TGI [2]: 3.72 µM; GI50 [3]: 0.0172 µM; TGI [3]: 0.0405 µM; GI50 [4]: 3.39 µM; TGI [4]: 10.6 µM; GI50 [5]: 4.4 µM; TGI [5]: 15.8 µM; GI50 [6]: 6.3 µM; TGI [6]: 18.2 µM; GI50 [7]: 2.67 µM; TGI [7]: 6.64 µM; GI50 [8]: 0.689 µM; TGI [8]: 2.35 µM; GI50 [9]: 3.71 µM; TGI [9]: 13.4 µM; GI50 [10]: 2.29 µM; TGI [10]: 4.18 µM; GI50 [11]: 1.33 µM; TGI [11]: 3.39 µM; GI50 [12]: 3.29 µM; TGI [12]: 12.5 µM; GI50 [13]: 3.87 µM; TGI [13]: 13.1 µM; GI50 [14]: 2 µM; TGI [14]: 5.52 µM; GI50 [15]: 3.93 µM; TGI [15]: 14 µM; GI50 [16]: 1.71 µM; TGI [16]: 3.22 µM; GI50 [17]: 2.07 µM; TGI [17]: 4.4 µM; GI50 [18]: 2.93 µM; TGI [18]: 8.98 µM; GI50 [19]: 1.98 µM; TGI [19]: 4.87 µM; GI50 [20]: 1.75 µM; TGI [20]: 3.42 µM; GI50 [21]: 3.59 µM; TGI [21]: 12.4 µM; GI50 [22]: 3.6 µM; TGI [22]: 9.04 µM; GI50 [23]: 0.95 µM; TGI [23]: 2.27 µM; GI50 [24]: 2.45 µM; TGI [24]: 7.41 µM; GI50 [25]: 2.95 µM; TGI [25]: 9.81 µM; GI50 [26]: 2.83 µM; TGI [26]: 7.6 µM; GI50 [27]: 0.284 µM; TGI [27]: 0.762 µM; GI50 [28]: 2.92 µM; TGI [28]: 7.99 µM; GI50 [29]: 2.12 µM; TGI [29]: 4.77 µM; GI50 [30]: 4.88 µM; TGI [30]: 15.7 µM; GI50 [31]: 0.211 µM; TGI [31]: 0.677 µM; GI50 [32]: 0.339 µM; TGI [32]: 1.07 µM; GI50 [33]: 3.97 µM; TGI [33]: 13.5 µM; GI50 [34]: 3.2 µM; TGI [34]: 9.92 µM; GI50 [35]: 2.61 µM; TGI [35]: 6.27 µM; GI50 [36]: 3.37 µM; TGI [36]: 11.1 µM; GI50 [37]: 2.79 µM; TGI [37]: 11.1 µM; GI50 [38]: 4.5 µM; TGI [38]: 14.7 µM; GI50 [39]: 11.3 µM; TGI [39]: 23.5 µM; GI50 [40]: 8.16 µM; TGI [40]: 20.1 µM; GI50 [41]: 3.1 µM; TGI [41]: 9.05 µM; GI50 [42]: 1.98 µM; TGI [42]: 7.23 µM; GI50 [43]: 2.81 µM; TGI [43]: 7.42 µM; GI50 [44]: 2.13 µM; TGI [44]: 5.71 µM; GI50 [45]: 3.64 µM; TGI [45]: 9.55 µM; GI50 [46]: 1.74 µM; TGI [46]: 3.64 µM; GI50 [47]: 1.65 µM; TGI [47]: 3.33 µM; GI50 [48]: 4.06 µM; TGI [48]: 11.3 µM; GI50 [49]: 3.81 µM; TGI [49]: 11.9 µM; GI50 [50]: 0.021 µM; TGI [50]: 0.0423 µM; GI50 [51]: 4.24 µM; TGI [51]: 13.1 µM; GI50 [52]: 1.78 µM; TGI [52]: 3.44 µM; GI50 [53]: 6.3 µM; TGI [53]: 18.4 µM; GI50 [54]: 0.758 µM; TGI [54]: 2.2 µM; GI50 [55]: 0.263 µM; TGI [55]: 0.794 µM; GI50 [56]: 1.31 µM; TGI [56]: 4 µM; GI50 [57]: 0.0287 µM; TGI [57]: 0.173 µM; GI50 [58]: 1.62 µM; TGI [58]: 3.84 µM; GI50 [59]: 1.66 µM; TGI [59]: 3.07 µM
